Data as given in patent US6348627B1 (priority 1999, dated 2002).

Columns and labels:
[1] = tested on: Sphaerotheca fulginea; conditions: 150 grams per hectare; cucumber cultivar Bush Champion; scored seven days after inoculation
[2] = tested on: Colletotrichum lagenarium; conditions: 150 grams per hectare; cucumber cultivar Bush Champion
[3] = tested on: Puccinia recondita (f sp. tritici); conditions: 150 grams per hectare; wheat cultivar Fielder; evaluated after 12 days
[4] = tested on: Pseudoperonospora cubensis; conditions: 9 grams per hectare; detached cucumber leaf; five days

| SMILES | percent disease control, cucumber powdery mildew [1] | percent disease control, cucumber anthracnose [2] | percent disease control, wheat leaf rust [3] | percent disease control, cucumber downy mildew [4] |
| --- | --- | --- | --- | --- |
| CNC(=O)C(=NOC)c1ccccc1CON=C(C)C1CC1(C)c1ccccc1 (stereo not drawn) [Compound 3.11, (E,E and Z,E)-N-Methyl 2-[2-((trans-1-(2-phenyl-2-methyl-cyclopropyl)ethylidene)aminooxymethyl)phenyl]-2-methoxyiminoacetamide] | 100% | 100% | 100% | – |
| CNC(=O)/C(=N/OC)c1ccccc1CO/N=C(\C)C1CC1(C)c1ccc(Cl)cc1 (centres unmarked) [Compound 3.14A, (E,E)-N-Methyl 2-[2-((1-(2-(4′-chlorophenyl)-2-methylcyclopropyl)ethylidene)aminooxymethyl)phenyl]-2-methoxyiminoacetamide] | 100% | 100% | 100% | – |
| CON=C(C(=O)OC)c1ccccc1CON=C(C)C1CC1c1c(Cl)cccc1Cl (stereo not drawn) [Compound 8.1, Methyl 2-[2-((trans-1-(2-(2′,6′-dichlorophenyl)cyclopropyl)ethylidene)aminooxymethyl)phenyl]-2-methoxyiminoacetate] | 100% | – | – | – |
| CNC(=O)C(=NOC)c1ccccc1CON=C(C)C1CC1c1c(Cl)cccc1Cl (stereo not drawn) [Compound 9.1, N-Methyl 2-[2-((trans-1-(2-(2′,6′-dichlorophenyl)cyclopropyl)ethylidene)aminooxymethyl)phenyl]-2-methoxyiminoacetamide] | 100% | 100% | 100% | – |
| CNC(=O)C(=NOC)c1ccccc1CON=C(C)C1CC1c1c(F)cccc1F (stereo not drawn) [Compound 9.7A, N-Methyl 2-[2-((trans-1-(2-(2′,6′-difluorophenyl)cyclopropyl)ethylidene)aminooxymethyl)phenyl]-2-methoxyiminoacetamide] | 100% | 100% | 100% | 100% |
